The target of data set [1] is T1, rabbit reticulocyte 15-LO (Oryctolagus cuniculus, UniProt P12530).
T1 construct: 15-LO is obtained from phenylhydrazine-treated rabbits and purified according to the method of Rapoport; from tissue; host or cells: reticulocytes of phenylhydrazine-treated rabbits
T1 sequence (P12530 1-663): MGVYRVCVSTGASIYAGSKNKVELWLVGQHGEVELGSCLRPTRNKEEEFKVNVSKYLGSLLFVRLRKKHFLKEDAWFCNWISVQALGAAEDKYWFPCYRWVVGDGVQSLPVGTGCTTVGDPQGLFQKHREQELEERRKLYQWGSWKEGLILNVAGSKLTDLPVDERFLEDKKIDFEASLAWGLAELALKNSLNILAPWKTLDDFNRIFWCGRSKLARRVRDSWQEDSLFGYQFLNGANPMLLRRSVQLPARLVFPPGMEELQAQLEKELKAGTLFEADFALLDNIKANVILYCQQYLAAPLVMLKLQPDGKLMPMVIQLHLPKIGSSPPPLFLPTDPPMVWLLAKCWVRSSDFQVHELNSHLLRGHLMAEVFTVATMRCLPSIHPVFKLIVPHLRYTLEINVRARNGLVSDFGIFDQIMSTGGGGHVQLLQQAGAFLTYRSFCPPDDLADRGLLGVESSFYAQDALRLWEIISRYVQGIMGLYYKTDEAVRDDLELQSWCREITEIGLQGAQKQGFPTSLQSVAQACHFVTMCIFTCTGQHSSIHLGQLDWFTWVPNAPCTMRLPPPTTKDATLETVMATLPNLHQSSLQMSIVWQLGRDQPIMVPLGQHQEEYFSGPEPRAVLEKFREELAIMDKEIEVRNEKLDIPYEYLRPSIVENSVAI
Description: Rabbit Reticulocyte 15-LO Assay (H15LO). The class given is biochemical. As to conditions: 2 U rabbit reticulocyte 15-LO, 174 μM linoleic acid, 15 minutes at 4° C., 13-HODE quantitated. How it is done:
In the H15LO assay, a test compound was incubated with 15-LO enzyme in the presence of the linoleic acid substrate. For example, 2 units (U) of rabbit reticulocyte 15-LO and 174 μM linoleic acid were incubated with a known amount of a test compound of the present invention for 15 minutes at 4° C. The total reaction volume was 100 μL in phosphate buffer saline (PBS) containing 0.2% sodium cholate. The reaction was stopped with 100 μL of mobile phase and […] of triethyl phosphite. […] 13-HODE was quantitated by comparing peak areas of individual samples with those from a standard curve generated using authentic 13-HODE.
15-LO is obtained from phenylhydrazine-treated rabbits and purified according to the method of Rapoport (Rapoport et al., European Journal of Biochemistry, 1979;96:545-561).

The target of data set [2] is T2, human 15-LO (Homo sapiens, UniProt P16050).
T2 construct: made in house; host or cells: Sf9 insect cells (baculovirus, Bac-to-Bac)
T2 sequence (P16050 1-662): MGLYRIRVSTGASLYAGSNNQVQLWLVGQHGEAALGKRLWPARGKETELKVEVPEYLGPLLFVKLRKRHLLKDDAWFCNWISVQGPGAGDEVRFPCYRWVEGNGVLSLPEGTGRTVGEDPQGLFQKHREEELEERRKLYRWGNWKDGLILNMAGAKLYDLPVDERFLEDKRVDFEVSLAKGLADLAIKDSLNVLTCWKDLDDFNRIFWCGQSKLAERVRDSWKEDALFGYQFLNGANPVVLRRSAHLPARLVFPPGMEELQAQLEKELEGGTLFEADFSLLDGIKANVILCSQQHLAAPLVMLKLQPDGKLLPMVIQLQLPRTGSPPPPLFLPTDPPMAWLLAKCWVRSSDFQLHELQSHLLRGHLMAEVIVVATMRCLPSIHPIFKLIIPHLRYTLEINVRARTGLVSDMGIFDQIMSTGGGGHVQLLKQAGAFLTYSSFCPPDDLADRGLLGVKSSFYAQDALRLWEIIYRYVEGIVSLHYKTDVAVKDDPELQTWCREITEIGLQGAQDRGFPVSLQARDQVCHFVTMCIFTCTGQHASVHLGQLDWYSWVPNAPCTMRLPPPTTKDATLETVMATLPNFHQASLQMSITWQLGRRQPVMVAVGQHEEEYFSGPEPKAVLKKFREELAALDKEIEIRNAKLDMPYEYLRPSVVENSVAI
Description: Human Lysate 15-LO Assay (HUM15LO). The data set is classed as biochemical. As to conditions: recombinant human 15-LO, 174 μM linoleic acid, 15 minutes at 4° C., 13-HODE quantitated. The protocol:
In the HUM15LO assay, a test compound of the present invention was incubated with 15-LO enzyme in the presence of the linoleic acid substrate. For example, a known amount of a test compound of the present invention, 100 μL of human 15-LO, and 174 μM linoleic acid in PBS containing 0.2% sodium cholate were incubated for 15 minutes at 4° C. The reaction was stopped with 100 μL of mobile phase and 10 μL of triethyl phosphite. […] 13-HODE was quantitated by comparing peak areas of individual samples with those from a standard curve generated using authentic 13-HODE. The test reaction is compared to a control reaction, which is identical to the test reaction except no test compound of the present invention is present Percent inhibition is calculated as the amount of 13-HODE produced by the test reaction divided by the amount of 13-HODE produced by the control reaction, expressed as a percent.
Human 15-LO was generated in a recombinant 15-lipoxygenase bacculovirus expression system, using Gibco/BRL/Life Technologies' Bac-to-Bac expression reagents; T4 DNA ligase, Kanamycin, Gentamicin, tetracycline, penicillin, streptomycin, Bluo-gal, IPTG, DH10Bac competent cells, SOC, LB medium, Sf-900 II SFM media, Sf9 insect cells, Cell Fectin, and EcoRI, BamHI and KpnI restriction enzymes.

pIC50: −log10 of the molar value.

In the case of `COc1ccc(C(=O)Nc2ccc(F)c(F)c2)cc1NS(=O)(=O)NC(=O)OCCCc1ccncc1` (hydrate or solvate) [Example 39, Carbamic Acid, [[[5-[[(3,4-difluorophenyl)amino]carbonyl]-2-methoxyphenyl]amino]sulfonyl]-, 3-(4-pyridinyl)propyl ester], the melting point is 160 to 164 °C. Consider `COc1ccc(-c2cc3cc(F)c(F)cc3[nH]2)cc1NS(=O)(=O)NC(=O)OCC(C)C` [Example 22, Carbamic Acid, [[[5-(5,6-difluoro-IH-indol-2-yl)-2-methoxyphenyl]amino]-sulfonyl]-, 2-methylpropyl ester], for which the pIC50 in data set [1] and in data set [2] was 7.60 each time. For the molecule `CCOC(=O)NS(=O)(=O)Nc1cc(-c2cc3cc(F)c(F)cc3[nH]2)ccc1OC` [Example 25, Carbamic Acid, [[[5-(5,6-difluoro-1H-indol-2-yl)-2-methoxyphenyl]amino]-sulfonyl]-, ethyl ester], the pIC50 is 7.82 in data set [1] and 7.47 in data set [2]. The like results for `COc1ccc(-c2cc3cc(F)c(F)cc3[nH]2)cc1NS(=O)(=O)NC(=O)Nc1ccc(Cl)cc1` [Example 27, Urea, N-(4-chlor phenyl)-N′-[[[5-(5,6-difluoro-IH-indol-2-yl)-2-methoxyphenyl]amino]sulfonyl]] were, in that order, 7.64 and 7.36. The like results for `COc1ccc(-c2cc3cc(F)c(F)cc3[nH]2)cc1NS(=O)(=O)NC(=O)OCCOC(C)C` [Example 34, Carbamic Acid, [[[5-(5,6-difluoro-IH-indol-2-yl)-2-methoxyphenyl]amino]-sulfonyl]-2(1-methylethoxy)ethyl Ester] were, in that order, 7.59 and 7.52. For `COc1ccc(C(=O)Nc2ccc(F)c(F)c2)cc1NS(=O)(=O)NC(=O)Nc1cc(Cl)cc(Cl)c1` [Example 17, Benzamide, 3-[[[[[(3,5-dichlorophenyl)amino]-carbonyl]amino]sulfonyl]-amino]-N-(3,4-difluorophenyl)-4-methoxy], the pIC50 in data set [1] was 8.00; in data set [2], 7.43. The like results for `COc1ccc(-c2cc3cc(F)c(F)cc3[nH]2)cc1NS(=O)(=O)NC(=O)Nc1ccc(C)cc1` [Example 28, Urea, N-[[[5-(5,6-difluoro-IH-indol-2-yl)-2-methoxyphenyl]amino]sulfonyl]-N′-(4-methylphenyl)] were, in that order, 7.41 and 7.74. In the case of `COC(=O)NS(=O)(=O)Nc1cc(-c2cc3cc(F)c(F)cc3[nH]2)ccc1OC` [Example 29, Carbamic Acid, [[[5-(5,6-difluoro-IH-indol-2-yl)-2-methoxyphenyl]amino]-sulfonyl]-methyl ester], the pIC50 in data set [1] is 7.33; in data set [2], 7.07. The like results for `CNS(=O)(=O)Nc1cc(-c2cc3cc(F)c(F)cc3[nH]2)ccc1OC` [Example 37, Sulfamide, N-[5-(5,6-diflouo-IH-indo-2-yl)-2-methoxyphenyl]-N′-methyl] were, in that order, 8.30 and 8.15. In the same order, the values of `COc1ccc(C(=O)Nc2ccc(F)c(F)c2)cc1NS(=O)(=O)NC(=O)Nc1ccc(C(C)(C)C)cc1` [Example 59, Benzamide, N-(3,4-difluorophenyl)-3-[[[[[[4-(1,1-dimethylethyl)phenyl]-amino]carbonyl]amino]sulfonyl]amino]-4-methoxy] are 7.89 and 7.62. As for `COc1ccc(-c2cc3cc(F)c(F)cc3[nH]2)cc1NS(=O)(=O)NC(=O)OCCc1ccccc1` [Example 40, Carbamic Acid, [[[5-(5,6-difluoro-IH-indol-2-yl)-2-methoxyphenyl]amino]-sulfonyl]-2-phenylethyl ester], the pIC50 was 8.15 in data set [1] and 7.82 in data set [2]. As for `COc1ccc(-c2cc3cc(F)c(F)cc3[nH]2)cc1NS(=O)(=O)N(C)C(=O)OCCCOCc1ccccc1` [Example 13, Carbamic Acid, [[[5-(5,6-difluoro-IH-indol-2-yl)-2-methoxyphenyl]amino]-sulfonyl]methyl-, 3(phenylmethoxy)propyl ester], the pIC50 was 7.92 in data set [1] and 7.52 in data set [2]. In the same order, the values of `COc1ccc(C(=O)Nc2ccc(F)c(F)c2)cc1NS(=O)(=O)NC(=O)OCCc1ccccc1` [Example 41] are 7.89 and 7.16. Consider `COc1ccc(-c2cc3cc(F)c(F)cc3[nH]2)cc1NS(=O)(=O)NC(=O)OCC(=O)OCc1ccccc1` [Example 16, Acetic Acid, [[[[[[5-(5,6-difluoro-IH-indol-2-yl)-2-methoxyphenyl]amino]-sulfonyl]amino]carbonyl]oxy]-, phenylmethyl ester], for which the pIC50 in data set [1] was 8.70; in data set [2], 8.00. In the same order, the values of `COc1ccc(C(=O)Nc2ccc(F)c(F)c2)cc1NS(=O)(=O)NC(=O)Nc1ccc(C(=O)O)cc1` [Example 65, Benzoic Acid, 4-[[[[[[5-[[(3,4-difluorophenyl)amino]carbonyl]-2-methoxyphenyl]amino]sulfonyl]amino]carbonyl]amino]] are 7.52 and 6.56.

In the case of `CCCCOC(=O)NS(=O)(=O)Nc1cc(-c2cc3cc(F)c(F)cc3[nH]2)ccc1OC` [Example 21, Carbamic Acid, [[[5-(5,6-difluoro-IH-indol-2-yl)-2-methoxyphenyl]amino]-sulfonyl]-, Butyl Ester], the pIC50 is 8.05 in data set [1] and 7.85 in data set [2].

On to `COc1ccc(NC(=O)NS(=O)(=O)Nc2cc(C(=O)Nc3ccc(F)c(F)c3)ccc2OC)cc1` [Example 66, Benzamide, N-(3,4-difluorophenyl)-4-methoxy-3-[[[[[(4-methoxyphenyl)-amino]carbonyl]amino]sulfonyl]amino]], for which the pIC50 in data set [1] was 7.29; in data set [2], 6.65. The like results for `COc1ccc(-c2cc3cc(F)c(F)cc3[nH]2)cc1NS(=O)(=O)NC(=O)Nc1cc(Cl)cc(Cl)c1` [Example 24] were, in that order, 7.96 and 7.48. In the same order, the values of `CNS(=O)(=O)Nc1cc(C(=O)Nc2ccc(F)c(F)c2)ccc1OC` [Example 38, Benzamide, N-(3,4-difluorophenyl)-4-methoxy-3-[[(methylamino)-sulfonyl]amino]] are 7.89 and 7.89.

Usually melting point stands for the temperature of the solid-liquid transition. Usually pIC50 stands for −log10 of the IC50, conventionally taken in molar units.

Source of the values: patent publication US6906094B2, “1,2,4-tribsubstituted benzenes as inhibitors of 15-lipoxygenase” (Warner-Lambert Company, priority 2000, dated 2005).
